Experimental data from patent US20240156733A1, “METHODS OF PREPARATION OF NOVEL PAN TLR ANTAGONISTIC LIPOSOMAL-LNP FORMULATIONS AND USES THEREOF” (Celestial Therapeutics Inc., priority 2022, published 2024).
“Also recorded” adds a separate entry of the source.

Columns and labels:
MD-2 = biological target: T1, MD-2 (Homo sapiens, UniProt Q9Y6Y9); details: prevents association with TLR-4; cited from earlier work
T1 sequence (Q9Y6Y9 19-160): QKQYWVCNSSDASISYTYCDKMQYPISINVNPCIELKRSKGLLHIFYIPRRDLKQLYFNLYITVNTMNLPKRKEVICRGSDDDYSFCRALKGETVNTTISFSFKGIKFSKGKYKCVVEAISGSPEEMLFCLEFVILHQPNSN

IL8 = assay: Suppression of inflammation mediated by IL8 (data not shown)
Source text: (§1) The Journal of Biological Chemistry 294, 4282 […]; Numata, M. & Voelker, D. R. Anti-inflammatory and anti-viral actions of anionic pulmonary surfactant phospholipids. Biochimica et Biophysica Acta (BBA)—Molecular and CEll Biology of Lipids 1867, 159139 (2022) Mueller, M., Brandenburg, K., Dedrick, R., Schromm, A. B. & Seydel, U. Phospholipids Inhibit Lipopolysaccharide (LPS)-Induced Cell Activation: A Role for LPS-Binding Protein. The Journal of Immunology 174, 1091-1096 (2005); K, K. et al. Anionic pulmonary surfactact phospholipids inhibit inflammatory response from alveolar macrophages and U937 cells by binding the lipopolysaccharide-interacting proteins CD14 and MD-2. J Biol Chem 284, 25488-25500 (2009)]. MD-2 and CD14 are molecular components that are responsible for facilitating the downstream intracellular signaling of TLR4 mediated inflammation. POPG binding to MD-2 and CD-14 will disrupt the downstream TLR signaling and prevent the inflammatory response [Berger, M. de Boer, J. D, van der Poll, T., Sterk, P. J. & van der Zee, J. S. Local coagulation activation following bronchial instillation of house dust mite allergen (HDM) and HDM/Lipopolysaccharide (LPS) in mild asthmatics. European Respiratory Journal 40. (2012)].

[1] = system: RAW264.7 murine macrophage cells; assay: TNFα production with TLR agonists in RAW264.7 macrophages, POPG treatment; type: cell-based; details: TLR agonist stimulated RAW264.7 cells, after 24 h of POPG treatment, FIG. 1
Source text: as §1

CD14 = biological target: T2, CD14 (Homo sapiens, UniProt P08571); details: prevents association with TLR-4; cited from earlier work
T2 sequence (P08571 20-345): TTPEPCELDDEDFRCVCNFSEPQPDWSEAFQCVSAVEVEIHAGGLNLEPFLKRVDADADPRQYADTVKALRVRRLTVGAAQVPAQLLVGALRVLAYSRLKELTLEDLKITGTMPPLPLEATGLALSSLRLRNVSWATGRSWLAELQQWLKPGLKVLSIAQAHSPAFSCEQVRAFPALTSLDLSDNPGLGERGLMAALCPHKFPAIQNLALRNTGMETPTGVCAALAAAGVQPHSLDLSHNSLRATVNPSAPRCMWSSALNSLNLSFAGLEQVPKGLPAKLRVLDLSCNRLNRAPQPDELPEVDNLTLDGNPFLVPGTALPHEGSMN

CCCCCCCC/C=C\CCCCCCCC(=O)O[C@H](COC(=O)CCCCCCCCCCCCCCC)COP(=O)(O)OCC(O)CO (stereo partly shown) [POPG, palmitoyloleoylphosphatidylglycerol]
binding to MD-2 (MD-2): preferentially bind | suppression of inflammation mediated by IL8 (IL8): suppression of inflammation | TNFα production [1]: reduces TNFα production; also recorded: suppression of inflammation mediated by TNFα | binding to CD14 (CD14): preferentially bind
